Patent US10278971B2, “Fluorocyclopentenylcytosine methods of use” (Rexahn Pharmaceuticals, Inc., priority 2015, dated 2019)

Legend:
Caki-1 = test: Mice xenograft model, tumor growth inhibition; type: in vivo; conditions: Caki-1 xenograft, oral 500 mg/kg, TIWK
Source text: (§1) A novel, orally bioavailable nucleoside analogue, RX-3117, is a prodrug activated intracellularly by Uridine Cytidine Kinase 2 (UCK2) that is thought to be expressed predominantly in tumor tissue. RX-3117 is currently being evaluated in a Phase Ib/IIa multi-center, open-label clinical study in patients with advanced pancreatic and bladder cancer. In this study, the relation between UCK2 tissue protein expression and the efficacy of RX-3117 in mice xenograft models and also UCK2 protein expression in a panel of human cancer tissues relative to normal tissue were studied.
(§2) The immunoblotting protein level of UCK2 normalized to beta-actin and corresponding tumor growth inhibition (oral RX-3117 dose of 500 mg/kg, TIWK) were 57 and 67% in MiaPaCa2, 30 and −5% in BxPC3, 199 and 92% in Colo-205, 21 and 90% in Caki-1, 2 and 39% in A549, and 146 and 79% in H460, respectively. […] Average H-Scores of UCK2 in cancer tissues vs. normal tissues were 104 vs. 9 in lung, 97 vs. 20 in bladder, 67 vs. 41 in pancreas and 39 vs. 21 in colon, respectively.

A549 = test: Mice xenograft model, tumor growth inhibition; type: in vivo; conditions: oral 500 mg/kg, TIWK
Source text: as §1, §2

Colo-205 = test: Mice xenograft model, tumor growth inhibition; type: in vivo; conditions: Colo-205 xenograft, oral 500 mg/kg, TIWK
Source text: as §1, §2

MiaPaCa2 = test: Mice xenograft model, tumor growth inhibition; type: in vivo; conditions: oral 500 mg/kg, TIWK
Source text: as §1, §2

BxPC3 = test: Mice xenograft model, tumor growth inhibition; type: in vivo; conditions: oral 500 mg/kg, TIWK
Source text: as §1, §2

H460 = test: Mice xenograft model, tumor growth inhibition; type: in vivo; conditions: oral 500 mg/kg, TIWK
Source text: as §1, §2

SW1573/G- = test: Cell cycle distribution by flow cytometry (PI); type: cell-based, human
Procedure: The effect of RX-3117 on cell cycle regulation and cell death in human non-small cell lung cancer (NSCLC) cell lines A549 (adenocarcinoma), SW1573 (alveolar carcinoma) and SW1573/G- (SW1573 cell line resistant to gemcitabine) and H460 (large cell carcinoma) was assessed. The A549 and H460 cell lines were obtained from American Type Culture Collection (Manassas, Va., USA). The SW1573 cell line, obtained from Dr. Johan van Rijn (see Keiser et al., Cancer Research, 49:2988-2993 (1989)), also served as the parental cell line for SW1573/G-. A549, SW1573, and SW1573/G- and H460 were kept in exponential growth in T25 flasks (Greiner Bio-One GmbH, Frickenhausen, Germany) and cultured in Dulbecco's minimal essential medium (DMEM) or RPMI 1640 (A549) supplemented with 10% heat-inactivated fetal bovine serum (FBS) 1% streptomycin and penicillin 20 mM HEPES and maintained in 37° C. water saturated atmospheres of 5% CO2. […] The cells stained with the PI solution were analyzed by FACSCalibur™ (BD Biosciences, Mount View, Calif., USA). Data was analyzed with CellQuest™ Pro software.
Cell cycle distribution and apoptosis were analyzed by plating cells in flat bottom 6 well plates (Greiner Bio-One GmbH, Frickenhausen, Germany) at the density of 5,000 cells and allowed to attach for 24 h. […] Subsequently, samples were analyzed using FACSCalibur (BD Biosciences, Mount View, Calif., USA). […]

SW1573 = conditions: as reported in Peters et al. 2013; cited from earlier work

Work on `Nc1ccn([C@@H]2C(F)=C(CO)[C@@H](O)[C@H]2O)c(=O)n1` [RX-3117, 4-amino-1-((1S,4R,5S)-2-fluoro-4,5-dihydroxy-3-hydroxymethyl-cyclopent-2-enyl)-1H-pyrimidin-2-one] yielded a tumor growth inhibition (Caki-1) of 90%, a tumor growth inhibition (A549) of 39% and a tumor growth inhibition (Colo-205) of 92%. The tumor growth inhibition (MiaPaCa2) was 67%, the tumor growth inhibition (BxPC3) was −5% and the tumor growth inhibition (H460) was 79%. For the same compound, the “accumulation of cells in the G1 phase” value (SW1573/G-; 1 μM, 24 hour exposure) was “induced accumulation”, the “accumulation of cells in the S-phase” value (SW1573/G-; 5×IC50, 24 and 48 hours) was “induced the accumulation” and the IC50 (SW1573) was 13.7 µM.
